Test results as given in US20160159861A1, “APJ Receptor Compounds” (priority 2013, published 2016).
Like-named read-outs stand apart in the source and are kept apart here. Peptide text beside a SMILES is read from it.

Molecular target: T1, human APJ receptor (hAPJ) (Homo sapiens, UniProt P35414)
T1 construct: expressed in transfected cells
T1 sequence (P35414 1-380): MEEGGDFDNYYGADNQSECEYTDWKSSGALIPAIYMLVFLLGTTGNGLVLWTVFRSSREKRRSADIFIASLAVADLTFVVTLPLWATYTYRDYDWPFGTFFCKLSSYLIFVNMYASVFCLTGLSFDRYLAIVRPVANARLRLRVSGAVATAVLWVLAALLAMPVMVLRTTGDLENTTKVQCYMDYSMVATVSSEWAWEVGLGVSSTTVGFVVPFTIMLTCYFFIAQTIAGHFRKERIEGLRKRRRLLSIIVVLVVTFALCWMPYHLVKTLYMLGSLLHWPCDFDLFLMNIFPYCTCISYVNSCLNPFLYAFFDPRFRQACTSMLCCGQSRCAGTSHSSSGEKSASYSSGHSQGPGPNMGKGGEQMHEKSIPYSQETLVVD
Experiment: HTRF cAMP assay: inhibition of NKH477-stimulated cAMP in HEK cells stably expressing hAPJ
Format: cell-based
Details: for % IA (cAMP inhibition, hAPJ HEK): intrinsic activity; for Ranking: composite class of EC50 (hAPJ), % IA and % histamine or formal (+) charge; for Emax: HEK293, read-out: % IA, bound stated; for inhibition of NKH477-stimulated increase in cAMP, dose dependent: concentration response curves, FIGS. 1 and 2, HEK cells stably expressing APJ
From the text: HTRF cAMP Assay and IP-One Assay (Cisbio)
HTRF (homogeneous time resolved fluorescence) is a technology developed by Cisbio Bioassays based on TR-FRET (time-resolved fluorescence resonance energy transfer). Cisbio Bioassays has developed a wide selection of HTRF-based assays compatible with whole cells, thereby enabling functional assays to run under more physiological conditions. The IP-One assays are competitive immunoassays using cryptate-labeled anti-IP1 monoclonal antibody and d2-labeled IP1. IP1 is a relatively stable downstream metabolite of IP3, and accumulates in cells following Gq receptor activation.
cAMP kits based on a competitive immunoassay using cryptate-labeled anti-cAMP antibody and d2-labeled cAMP were used to assay the effects of APJ compounds of the present invention. […] Cells are treated with 1 nG/mL doxycycline and seeded in all white 96 well plates @40 k/well overnight.

[1] = Table 6, hAPJ HEK cells, NKH477-stimulated cAMP, read-out: EC50 (cAMP inhibition, hAPJ HEK)
[2] = EC50 (cAMP inhibition, hAPJ HEK), Table 6, hAPJ HEK cells, NKH477-stimulated cAMP
[3] = EC50 (hAPJ), inhibition of cAMP production, bound stated, HTRF cAMP Assay, per data of Table 6
[4] = HTRF cAMP Assay, per data of Table 6
[5] = HTRF cAMP Assay, per data of Table 6, read-out: EC50 (hAPJ), inhibition of cAMP production, bound stated

Compound | EC50 [1] [nM] | % IA (cAMP inhibition, hAPJ HEK) (Table 6, hAPJ HEK cells) [%] | Ranking | EC50 [2] [nM] | EC50 [3] [nM] | Emax [4] [%] | EC50 [5] [nM] | inhibition of NKH477-stimulated increase in cAMP, dose dependent
CCCCCCCCCCCCCCCC(=O)N[C@H](C(=O)N[C@H](C(=O)N[C@@H](CC(=O)O)C(=O)N[C@@H](CCCNC(=N)N)C(=O)N[C@@H](CO)C(=O)N[C@@H](CO)C(=O)N[C@@H](CCCNC(=N)N)C(=O)N[C@@H](CCC(=O)O)C(=O)N[C@H](CCCCN)C(=O)N[C@@H](CCCNC(=N)N)C(=O)N[C@@H](CCCNC(=N)N)C(=O)N[C@@H](CCC(=O)O)C(=O)N[C@@H](CO)C(=O)N[C@@H](C)C(=O)N[C@@H](CC(=O)O)C(=O)N[C@H](C(=O)N[C@@H](Cc1ccccc1)C(=O)N[C@H](C(N)=O)[C@@H](C)CC)[C@@H](C)CC)C(C)C)[C@@H](C)O [Compound 5] (HELM PEPTIDE1{[CCCCCCCCCCCCCCCC(=O)[*:2]].T.V.D.R.S.S.R.E.[dK].R.R.E.S.A.D.I.F.I.[am]}$$$$V2.0) | 40 | 41 | * (EC50≦50 nM (hAPJ), % IA<50%) |  |  |  |  | 
CCCCCCCCCCCCCCCC(=O)N[C@H](C(=O)N[C@H](C(=O)N[C@@H](CC(=O)O)C(=O)N[C@@H](CCCNC(=N)N)C(=O)N[C@@H](CO)C(=O)N[C@@H](CO)C(=O)N[C@@H](CCC(N)=O)C(=O)N[C@@H](CCC(=O)O)C(=O)N[C@H](CCCCN)C(=O)N[C@@H](CCCNC(=N)N)C(=O)N[C@@H](CCCNC(=N)N)C(=O)N[C@@H](CO)C(=O)N[C@@H](C)C(=O)N[C@@H](CC(=O)O)C(=O)N[C@H](C(=O)N[C@@H](Cc1ccccc1)C(=O)N[C@H](C(N)=O)[C@@H](C)CC)[C@@H](C)CC)C(C)C)[C@@H](C)O [Compound 6] (HELM PEPTIDE1{[CCCCCCCCCCCCCCCC(=O)[*:2]].T.V.D.R.S.S.Q.E.[dK].R.R.S.A.D.I.F.I.[am]}$$$$V2.0) |  | 77 | *** (EC50 25-50 nM (hAPJ), % IA 50-79% and either % histamine≦35% or formal (+) charge≦1) | 19 | 25 to 50 | 50 to 79 |  | 
CCCCCCCCCCCCCCCC(=O)N[C@H](C(=O)N[C@H](C(=O)N[C@@H](CC(=O)O)C(=O)N[C@@H](CCCNC(=N)N)C(=O)N[C@@H](CO)C(=O)N[C@@H](CO)C(=O)N[C@@H](CCCCN)C(=O)N[C@@H](CCC(=O)O)C(=O)N[C@H](CCCCN)C(=O)N[C@@H](CCCNC(=N)N)C(=O)N[C@@H](CCCNC(=N)N)C(=O)N[C@@H](CO)C(=O)N[C@@H](C)C(=O)N[C@@H](CC(=O)O)C(=O)N[C@H](C(=O)N[C@@H](Cc1ccccc1)C(=O)N[C@H](C(N)=O)[C@@H](C)CC)[C@@H](C)CC)C(C)C)[C@@H](C)O [Compound 7] (HELM PEPTIDE1{[CCCCCCCCCCCCCCCC(=O)[*:2]].T.V.D.R.S.S.K.E.[dK].R.R.S.A.D.I.F.I.[am]}$$$$V2.0) |  | 59 | *** (EC50 25-50 nM (hAPJ), % IA 50-79% and either % histamine≦35% or formal (+) charge≦1) | 9 | 25 to 50 | 50 to 79 |  | 
CCCCCCCCCCCCCCCC(=O)N[C@@H](CC(=O)O)C(=O)N[C@H](C(=O)N[C@@H](Cc1ccccc1)C(=O)N[C@@H](CC(N)=O)C(=O)N[C@@H](CO)C(=O)N[C@@H](CO)C(=O)N[C@@H](CCC(=O)O)C(=O)N[C@H](CCCCN)C(=O)N[C@@H](CCCNC(=N)N)C(=O)N[C@@H](CCCNC(=N)N)C(=O)N[C@@H](CO)C(=O)N[C@@H](C)C(=O)N[C@@H](CC(=O)O)C(=O)N[C@@H](CC(N)=O)C(=O)N[C@@H](Cc1ccccc1)C(=O)N[C@H](C(N)=O)[C@@H](C)CC)C(C)C [Compound 19] (HELM PEPTIDE1{[CCCCCCCCCCCCCCCC(=O)[*:2]].D.V.F.N.S.S.E.[dK].R.R.S.A.D.N.F.I.[am]}$$$$V2.0) | 5 | 67 | *** (EC50 25-50 nM (hAPJ), % IA 50-79% and either % histamine≦35% or formal (+) charge≦1) |  |  | 50 to 79 | 25 to 50 | 
CCCCCCCCCCCCCCCC(=O)N[C@@H](CC(=O)O)C(=O)N[C@H](C(=O)N[C@@H](Cc1ccccc1)C(=O)N[C@@H](CCCNC(=N)N)C(=O)N[C@@H](CO)C(=O)N[C@@H](CO)C(=O)N[C@@H](CCC(=O)O)C(=O)N[C@H](CCCCN)C(=O)N[C@@H](CCCNC(=N)N)C(=O)N[C@@H](CCCNC(=N)N)C(=O)N[C@@H](CO)C(=O)N[C@@H](C)C(=O)N[C@@H](CC(=O)O)C(=O)N[C@@H](CC(N)=O)C(=O)N[C@@H](Cc1ccccc1)C(=O)N[C@H](C(N)=O)[C@@H](C)CC)C(C)C [Compound 20] (HELM PEPTIDE1{[CCCCCCCCCCCCCCCC(=O)[*:2]].D.V.F.R.S.S.E.[dK].R.R.S.A.D.N.F.I.[am]}$$$$V2.0) | 32 | 98 | *** (EC50 25-50 nM (hAPJ), % IA 50-79% and either % histamine≦35% or formal (+) charge≦1) |  |  | 50 to 79 | 25 to 50 | 
CCCCCCCCCCCCCCCC(=O)N[C@H](C(=O)N[C@H](C(=O)N[C@@H](CCCCN)C(=O)N[C@@H](CCCNC(=N)N)C(=O)N[C@@H](CO)C(=O)N[C@@H](CO)C(=O)N[C@@H](CCC(=O)O)C(=O)N[C@H](CCCCN)C(=O)N[C@@H](CCCNC(=N)N)C(=O)N[C@@H](CCCNC(=N)N)C(=O)N[C@@H](CO)C(=O)N[C@@H](C)C(=O)N[C@@H](CC(=O)O)C(=O)N[C@H](C(=O)N[C@@H](Cc1ccccc1)C(=O)N[C@H](C(N)=O)[C@@H](C)CC)[C@@H](C)CC)C(C)C)[C@@H](C)O [Compound 21] (HELM PEPTIDE1{[CCCCCCCCCCCCCCCC(=O)[*:2]].T.V.K.R.S.S.E.[dK].R.R.S.A.D.I.F.I.[am]}$$$$V2.0) |  | 85 | **** (EC50≦25 nM (hAPJ), % IA≧80% and either % histamine>35% or formal (+) charge>1) | 9 | ≤ 25 | ≥ 80 |  | inhibited
CCCCCCCCCCCCCCCC(=O)N[C@H](C(=O)N[C@H](C(=O)N[C@@H](Cc1ccccc1)C(=O)N(C)[C@@H](CCCNC(=N)N)C(=O)N[C@@H](CO)C(=O)N[C@@H](CO)C(=O)N[C@@H](CCC(=O)O)C(=O)N[C@H](CCCCN)C(=O)N[C@@H](CCCNC(=N)N)C(=O)N[C@@H](CCCNC(=N)N)C(=O)N[C@@H](CO)C(=O)N[C@@H](C)C(=O)N[C@@H](CC(=O)O)C(=O)N[C@H](C(=O)N[C@@H](Cc1ccccc1)C(=O)N[C@H](C(N)=O)[C@@H](C)CC)[C@@H](C)CC)C(C)C)[C@@H](C)O [Compound 31] (HELM PEPTIDE1{[CCCCCCCCCCCCCCCC(=O)[*:2]].T.V.F.[meR].S.S.E.[dK].R.R.S.A.D.I.F.I.[am]}$$$$V2.0) |  | 84 | ** (EC50 25-50 nM (hAPJ), % IA 50-79% and either % histamine>35% or formal (+) charge>1) |  |  |  |  | 
CCCCCCCCCCCCCCCC(=O)N[C@H](C(=O)N[C@H](C(=O)N[C@@H](CC(=O)O)C(=O)N(C)[C@@H](CCCNC(=N)N)C(=O)N[C@@H](CO)C(=O)N[C@@H](CO)C(=O)N[C@@H](CCC(=O)O)C(=O)N[C@H](CCCCN)C(=O)N[C@@H](CCCNC(=N)N)C(=O)N[C@@H](CCCNC(=N)N)C(=O)N[C@@H](CO)C(=O)N[C@@H](C)C(=O)N[C@@H](CC(=O)O)C(=O)N[C@H](C(=O)N[C@@H](Cc1ccccc1)C(=O)N[C@H](C(N)=O)[C@@H](C)CC)[C@@H](C)CC)C(C)C)[C@@H](C)O [Compound 32] (HELM PEPTIDE1{[CCCCCCCCCCCCCCCC(=O)[*:2]].T.V.D.[meR].S.S.E.[dK].R.R.S.A.D.I.F.I.[am]}$$$$V2.0) |  | 97 | **** (EC50≦25 nM (hAPJ), % IA≧80% and either % histamine>35% or formal (+) charge>1) | 24 | ≤ 25 | ≥ 80 |  | inhibited
CCCCCCCCCCCCCCCC(=O)N[C@H](C(=O)N[C@H](C(=O)N[C@@H](CC(=O)O)C(=O)N[C@@H](CCCNC(=N)N)C(=O)N[C@@H](CO)C(=O)N[C@@H](CO)C(=O)N[C@@H](CCC(=O)O)C(=O)N[C@H](CCCCN)C(=O)N[C@@H](CCCNC(=N)N)C(=O)N[C@@H](CCCNC(=N)N)C(=O)N[C@@H](CO)C(=O)N[C@@H](C)C(=O)N[C@@H](CC(=O)O)C(=O)N[C@@H](Cc1ccc(F)cc1)C(=O)N[C@@H](Cc1ccccc1)C(=O)N[C@H](C(N)=O)[C@@H](C)CC)C(C)C)[C@@H](C)O [Compound 33, TVDRSSEkRRSAD(p-fluoro-Phe)FI] (HELM PEPTIDE1{[CCCCCCCCCCCCCCCC(=O)[*:2]].T.V.D.R.S.S.E.[dK].R.R.S.A.D.[O=C([C@H](Cc1ccc(F)cc1)N[*:1])[*:2]].F.I.[am]}$$$$V2.0) | 30 | 80 | *** (EC50 25-50 nM (hAPJ), % IA 50-79% and either % histamine≦35% or formal (+) charge≦1) |  |  | 50 to 79 | 25 to 50 | 
